Assay results reported in US20040116346A1, “Affinity small molecules for the EPO receptor” (priority 2002, published 2004).

Experiments:
TF-1 and UT-7 cells = test: biological testing in cell lines (cell proliferation assay and cell signaling assay); type: cell-based
Source text: Compounds identified in the initial screen were further tested for their biological activity in two assays: a cell proliferation assay and a cell signaling assay in TF-1 and UT-7 cells. The hit rate in cell proliferation was 0.16%; hit rate in cell signaling was 0.25%.
At the end of the biological testing in cell lines TF-1 and UT-7, E4, E5, E5 analogs and E6 molecules were some of the compounds identified as showing the best activity.
Compounds identified in the initial screen were further tested for their biological activity in two assays: a cell proliferation assay and a cell signaling assay in TF-1 cells. The hit rate in cell proliferation was 0.16%; hit rate in cell signaling was 0.25%.
At the end of the biological testing in cell line, E4, E5, E5 analog, and E6 molecules were some of the compounds identified as showing the best activity.

TF-1 cells = test: Cell proliferation; type: cell-based; settings: TF-1 cells stimulated for 96 hours
Experimental: TF-1 cells were stimulated for 96 hours with different non-peptide EPO-R modulators, and it was observed that the non-peptide EPO binding molecules stimulated cellular proliferation in dose-responsive manner and to the extent of the natural hormone.

## Cc1ccc(Cl)cc1Nc1nc2nc(C)c(NCC3CC3)cn2n1 [Compound E5]
TF-1 and UT-7 cells; cell line (TF-1 cells)
  maximum activity compared to EPO natural hormone: maximum activity comparable to that of the maximum activity of EPO
TF-1 and UT-7 cells; cell lines TF-1 and UT-7, in the presence of low levels of EPO
  maximum activity compared to EPO natural hormone: maximum activity comparable to that of the maximum activity of EPO
TF-1 cells
  cellular proliferation: proliferative effect
